{"source": "patent US7256279B2", "about": "“Protein having ribonucleotide reductase activity and DNA thereof” (Takeda Pharmaceutical Company Limited, priority 1999, dated 2007)", "format_in_all_cases": "cell-based", "key": {"MCF7 cells [1]": {"tested_on": "MCF7 cells", "experiment": "Long-term cell survival (colony count after three weeks) after oligonucleotide introduction and DNA damage", "details": "colonies counted after three weeks", "protocol": "(§1) Short-term and long-term cell survival rates were also measured when TP53R2H expression was suppressed with an antisense oligonucleotide and DNA was damaged.\n(§2) 2×10^6 MCF7 cells) were propagated on 10 cm Petri dishes, and after 24 hours a p53R2 antisense oligonucleotide (AS3), a sense oligonucleotide (SE3) and a p53 antisense oligonucleotide (p53AS) were introduced using a lipofectin reagent. 4 hours later the cellular DNA was damaged (3 or 14 Gy γ-ray irradiation, adiamycin 0.2 μg/ml, UV 10 J/m^2).\n(§3) In order to study short-term cell survival, the cells were stripped immediately after DNA damage and re-propagated on 6-hole plates to a density of 3×10^5, and cell numbers were counted every day for 6 days. To study long-term cell survival, the cells were re-propagated after DNA damage on 10 cm plates to a density of 1×10^4 or 1×10^3, and the number of colonies 1 mm or more in diameter was counted after three weeks and expressed as a percentage."}, "MCF7 cells [2]": {"tested_on": "MCF7 cells", "experiment": "DNA repair activity through ribonucleotide reductase activity ([3H]-CDP converted to [3H]-dCTP in damaged DNA) after oligonucleotide introduction", "details": "14 Gy γ-ray irradiation 4 hours after lipofectin introduction, cells collected after 0, 24 and 48 hours (FIG. 5)", "protocol": "DNA repair activity through ribonucleotide reductase activity was measured by converting [^3H]-CDP to [^3H]-dCTP through ribonucleotide reductase in cells, in which the DNA had been damaged, and measuring the radioactivity of [^3H]-dCTP in the damaged DNA.\n1×10^6 MCF7 cells were propagated on 10 cm petri dishes, cellular DNA was damaged (14 Gy γ-ray irradiation) 24 hours later, and after 0, 6, 24 and 48 hours the cells were harvested. After washing the cells with Solution A (150 mM sucrose, 80 mM KCl, 35 mM Hepes (pH 7.4), 5 mM potassium phosphate (pH 7.4), 5 mM MgCl2, 0.5 mM CaCl2), these cells were treated for 1 minute at 4° C. with Solution A containing 0.25 mg/ml lysolecithin. […] 75 μl of 0.2N NaOH was added to the DNA obtained, which was then incubated for 30 minutes at 37° C. and mixed with 5 ml of AQUASOL-2 (Packard), and radioactivity was measured with an Aloka LSC-5100 liquid scintillation counter. […]\n2×10^6 MCF7 cells were propagated on 10 cm petri dishes, and after 24 hours a TP53R2H antisense oligonucleotide (AS3) a sense oligonucleotide (SE3) and a p53 antisense oligonucleotide (p53AS) were introduced according to attached protocol using a lipofectin reagent (GIBCO BRL). […] DNA repair activity was then measured in the same way as in Example 4 above."}, "MCF7 cells [3]": {"tested_on": "MCF7 cells", "experiment": "Short-term cell survival (cell numbers counted every day for 6 days) after oligonucleotide introduction and DNA damage", "details": "in both the short- and long-term, after DNA damage (Table 1 and FIG. 6)", "protocol": "as §1, §2, §3"}}, "data": [{"substance": "AsCsAsTsTsTsAsCsCsTsCsAsTsCsCsT (ACATTTACCTCATCCT; all phosphorothioate, sugars by position and methylation of C not given here) [AS3]", "values": [{"measurement": "long-term cell survival (number of colonies 1 mm or more in diameter, expressed as a percentage)", "setting": "MCF7 cells [1]; Adriamycin (0.2 μg/ml)", "result": 16, "unit": "%"}, {"measurement": "long-term cell survival (number of colonies 1 mm or more in diameter, expressed as a percentage)", "setting": "MCF7 cells [1]; UV (10 J/m2)", "result": 22, "unit": "%"}, {"measurement": "long-term cell survival (number of colonies 1 mm or more in diameter, expressed as a percentage)", "setting": "MCF7 cells [1]; γ-radiation (3Gy)", "result": 59, "unit": "%"}, {"measurement": "DNA repair activity", "setting": "MCF7 cells [2]", "result": "DNA repair activity declined"}, {"measurement": "sensitivity to DNA damage / cell death", "setting": "MCF7 cells [3]", "result": "sensitivity to DNA damage increases and cell death is more likely"}]}, {"substance": "AsGsGsAsTsGsAsGsGsTsAsAsAsTsGsT (AGGATGAGGTAAATGT; all phosphorothioate, sugars by position not given here) [SE3]", "values": [{"measurement": "long-term cell survival (number of colonies 1 mm or more in diameter, expressed as a percentage)", "setting": "MCF7 cells [1]; Adriamycin (0.2 μg/ml)", "result": 100, "unit": "%"}, {"measurement": "long-term cell survival (number of colonies 1 mm or more in diameter, expressed as a percentage)", "setting": "MCF7 cells [1]; UV (10 J/m2)", "result": 100, "unit": "%"}, {"measurement": "long-term cell survival (number of colonies 1 mm or more in diameter, expressed as a percentage)", "setting": "MCF7 cells [1]; γ-radiation (3Gy)", "result": 100, "unit": "%"}]}, {"substance": "CsCsCsTsGsCsTsCsCsCsCsCsCsTsGsGsCsTsCsC (CCCTGCTCCCCCCTGGCTCC; all phosphorothioate, sugars by position and methylation of C not given here) [p53AS]", "values": [{"measurement": "long-term cell survival (number of colonies 1 mm or more in diameter, expressed as a percentage)", "setting": "MCF7 cells [1]; Adriamycin (0.2 μg/ml)", "result": 10, "unit": "%"}, {"measurement": "long-term cell survival (number of colonies 1 mm or more in diameter, expressed as a percentage)", "setting": "MCF7 cells [1]; UV (10 J/m2)", "result": 11, "unit": "%"}, {"measurement": "long-term cell survival (number of colonies 1 mm or more in diameter, expressed as a percentage)", "setting": "MCF7 cells [1]; γ-radiation (3Gy)", "result": 15, "unit": "%"}, {"measurement": "DNA repair activity", "setting": "MCF7 cells [2]", "result": "DNA repair activity also declined"}]}]}
